The assay deals with T1, estrogen receptor (ERα) (Homo sapiens, UniProt P03372).
T1 construct: endogenous in cells; host or cells: MCF7 cells (ATCC)
T1 sequence (P03372 1-595): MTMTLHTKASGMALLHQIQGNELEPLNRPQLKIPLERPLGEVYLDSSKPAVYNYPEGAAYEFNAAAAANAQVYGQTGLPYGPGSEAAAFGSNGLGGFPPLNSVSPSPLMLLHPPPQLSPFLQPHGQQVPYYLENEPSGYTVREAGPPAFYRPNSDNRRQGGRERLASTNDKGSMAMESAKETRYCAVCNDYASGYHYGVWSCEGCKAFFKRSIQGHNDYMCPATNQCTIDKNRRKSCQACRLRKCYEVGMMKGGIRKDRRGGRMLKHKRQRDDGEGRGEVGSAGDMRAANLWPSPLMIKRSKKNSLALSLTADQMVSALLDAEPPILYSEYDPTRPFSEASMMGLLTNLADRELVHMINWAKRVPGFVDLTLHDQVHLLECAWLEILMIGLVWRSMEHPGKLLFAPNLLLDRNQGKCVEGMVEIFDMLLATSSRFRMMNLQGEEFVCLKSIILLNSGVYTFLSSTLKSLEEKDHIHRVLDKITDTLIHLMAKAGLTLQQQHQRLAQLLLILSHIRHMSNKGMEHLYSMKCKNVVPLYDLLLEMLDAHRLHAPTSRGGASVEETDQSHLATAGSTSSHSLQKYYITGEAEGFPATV
Description: Estrogen receptor degradation activity (ERα in cell western assay, MCF7 breast cancer cells). It is filed as cell-based. The following applies: for percent ER degradation at 0.3 µM: 4 hours, relative to fulvestrant (0.1 μM) and DMSO; for DC50: concentration which degrades 50% of the estrogen receptor, 4 hours post compound addition, read-out: Degradation IC50. On the procedure: Test: Estrogen Receptor Degradation Activity
Said test involves measuring the in vitro degradation activity of the compounds of the Table 1a.
The measurements of the degradation activities were made using a breast cancer cell ERα in cell western assay as described hereunder.
MCF7 cells (ATCC) were seeded in 384 wells microplate (collagen coated) at a concentration of 10000 cells/30 μL per well in red phenol free MEM alpha medium (invitrogen) containing 5% charcoal dextran striped FBS. The following day, 9 points serial 1:5 dilution of each compound was added to the cells in 2.5 μL at final concentrations ranging from 0.3-0.0000018 μM (in table 2), or 0.1 μM for fulvestrant (using as positive control). At 4 hours post compound addition the cells were fixed by adding 25 μL of formalin (final concentration 5% formalin containing 0.1% triton) for 10 minutes at room temperature and then washed twice with PBS. Then, 50 μL of LI-COR blocking buffer containing 0.1% Triton was added to plate for 30 minutes at room temperature. LI-COR blocking buffer was removed and cells were incubated overnight at cold room with 50 μL anti-ER rabbit monoclonal antibody (Thermo scientific MA1-39540) diluted at 1:1000 in LI-COR blocking buffer containing 0.1% tween-20. Wells which were treated with blocking buffer but no antibody were used as background control. Wells were washed twice with PBS (0.1% tween-20) and incubated at 37° C. for 60 minutes in LI-COR (0.1% tween-20) containing goat anti-rabbit antibody Alexa 488 (1:1000) and Syto-64 a DNA dye (2 μM final concentration). Cells were then washed 3 times in PBS and scanned in ACUMEN explorer (TTP-Labtech). Integrated intensities in the green fluorescence and red fluorescence were measured to determine the levels of ERα and DNA respectively.
The degradation activity with respect to estrogen receptors in this test is given by the concentration which degrades 50% of the estrogen receptor (or IC50) in nM.
The % of ERα levels decrease were determined as follows: % inhibition=100*(1−(sample−fulvestrant: DMSO−fulvestrant)).

SMILES strings stand for the structures.

As to `Cc1cc(F)cc(C)c1C(=O)c1sc2cc(C(=O)O)ccc2c1Oc1ccc(NC2CN(CCCF)C2)cc1` [Compound 1, 2-(4-fluoro-2,6-dimethylbenzoyl)-3-(4-((1-(3-fluoropropyl)azetidin-3-yl)amino)phenoxy)benzo[b]thiophene-6-carboxylic acid], the percent ER degradation at 0.3 µM came out at 91% and the DC50 is 5 nM.
As for `Cc1cc(F)cc(C)c1C(=O)c1sc2cc(C(=O)O)ccc2c1Oc1ccc(OC2CN(CCCF)C2)cc1` [Compound 2, 2-(4-fluoro-2,6-dimethylbenzoyl)-3-(4-((1-(3-fluoropropyl)azetidin-3-yl)oxy)phenoxy)benzo[b]thiophene-6-carboxylic acid], the percent ER degradation at 0.3 µM was determined as 92% and the DC50 amounted to 5 nM.
Taken in the same sequence, the figures for `Cc1cc(F)cc(C)c1C(=O)c1sc2cc(C(=O)O)ccc2c1Oc1ccc(CC2CN(CCCF)C2)cc1` [Compound 3, 2-(4-fluoro-2,6-dimethylbenzoyl)-3-(4-((1-(3-fluoropropyl)azetidin-3-yl)methyl)phenoxy)benzo[b]thiophene-6-carboxylic acid] were 85% and 3 nM.
Take `Cc1cc(F)cc(C)c1C(=O)c1sc2cc(C(=O)O)ccc2c1Oc1ccc(C=C2CN(CCCF)C2)cc1` [Compound 4, 2-(4-fluoro-2,6-dimethylbenzoyl)-3-(4-((1-(3-fluoropropyl)azetidin-3-ylidene)methyl)phenoxy)benzo[b]thiophene-6-carboxylic acid]: the percent ER degradation at 0.3 µM came to 98% and the DC50 was 0.3 nM.
Taken in the same sequence, the figures for `Cc1cc(F)cc(C)c1C(=O)c1sc2cc(C(=O)O)ccc2c1Oc1ccc(O[C@H]2CCN(CCCF)C2)cc1` [Compound 5, (S)-2-(4-fluoro-2,6-dimethylbenzoyl)-3-(4-((1-(3-fluoropropyl)pyrrolidin-3-yl)oxy)phenoxy)benzo[b]thiophene-6-carboxylic acid] were 91% and 12 nM.
Taken in the same sequence, the figures for `Cc1cc(F)cc(C)c1C(=O)c1sc2cc(C(=O)O)ccc2c1Oc1ccc(N[C@H]2CCN(CCCF)C2)cc1` [Compound 6, (S)-2-(4-fluoro-2,6-dimethylbenzoyl)-3-(4-((1-(3-fluoropropyl)pyrrolidin-3-yl)amino)phenoxy)benzo[b]thiophene-6-carboxylic acid] were 84% and 3 nM.

For the origin of these results see US20260337184A1, “NOVEL SUBSTITUTED 2-CARBONYL-BENZOTHIOPHENE-6-CARBOXYLIC ACID DERIVATIVES, PROCESSES FOR THEIR PREPARATION AND THERAPEUTIC USES THEREOF” (SANOFI, priority 2022, published 2026).
